In US9663473B2 (Actelion Pharmaceuticals Ltd, priority 2013, dated 2017):

Test system: models of Alzheimer's Disease
Assay: not given
Conditions: cited from earlier work

Row | Compound | neuroprotection
1 | humanin: high-affinity ligand for FPR2, neuroprotective in models of Alzheimer's Disease (MAPRGFSCLLLLTSEIDLPVKRRA; Humanin; UniProt Q8IVG9 1-24, looked up) | neuroprotective

Target: T1, ALXR (Homo sapiens, UniProt P25090)
T1 sequence (P25090 1-351): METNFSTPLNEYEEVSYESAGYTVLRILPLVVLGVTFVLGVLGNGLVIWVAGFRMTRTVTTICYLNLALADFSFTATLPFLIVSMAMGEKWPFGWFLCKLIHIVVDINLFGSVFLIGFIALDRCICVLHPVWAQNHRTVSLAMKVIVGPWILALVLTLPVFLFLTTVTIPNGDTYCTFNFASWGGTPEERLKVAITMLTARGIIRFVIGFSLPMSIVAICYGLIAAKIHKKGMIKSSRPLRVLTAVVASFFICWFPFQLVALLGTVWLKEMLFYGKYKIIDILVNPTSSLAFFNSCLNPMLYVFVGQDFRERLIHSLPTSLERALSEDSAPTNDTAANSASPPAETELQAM
Assay: not given
Conditions: cited from earlier work

Row | Compound | binding to ALXR
2 | CCCCC[C@H](O)/C=C/C=C\C=C\C=C\[C@@H](O)[C@@H](O)CCCC(=O)O [Lipoxin A4, lipoxin A4] | high affinity

Test system: dry corneal surface
Assay: not given
Conditions: topical treatment; cited from earlier work

Row | Compound | re-epithelization and inflammation of the dry corneal surface
3 | CCCCC[C@H](O)/C=C/C=C\C=C\C=C\[C@@H](O)[C@@H](O)CCCC(=O)O [Lipoxin A4, lipoxin A4] | increases re-epithelization and decreases inflammation of the dry corneal surface

Test system: human fibroblast-like synoviocytes
Assay: not given
Conditions: cited from earlier work

Row | Compound | IL-6 expression
4 | CCCCC[C@H](O)/C=C/C=C\C=C\C=C\[C@@H](O)[C@@H](O)CCCC(=O)O [Lipoxin A4, lipoxin A4] | inhibited IL-6 expression

Target: T2, recombinant human ALX receptor (Homo sapiens, UniProt P25090)
T2 construct: expressed in transfected cells; host or cells: HEK293 (HEK293-hALXR-Gα16)
T2 sequence (P25090 1-351): T1 sequence (P25090 1-351)
Assay: Intracellular calcium measurements (FLIPR), ALX receptor agonistic activity
Format: cell-based
Conditions: HEK293-hALXR-Gα16 cells, Fluo-4 calcium signal, normalized to WKYMVm 10 nM
In short: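 Agonist-induced calcium flux was read by FLIPR (488/540 nm) as baseline-subtracted peak emission, expressed relative to WKYMVm at 10 nM final. Cells used: HEK293-hALXR-Gα16, dye-loaded 60 min at 37° C. with 1 μM Fluo-4 AM before compound dose-response addition.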

Row | Compound | EC50
5 | COc1ccc(C[C@H](NC(=O)NC2CC(C)(C)NC(C)(C)C2)c2nc3ccccc3[nH]2)cc1 [Example 397, (S)-1-(1-(1H-benzo[d]imidazol-2-yl)-2-(4-methoxyphenyl)ethyl)-3-(2,2,6,6-tetramethylpiperidin-4-yl)urea] | 0.808 µM
6 | COc1ccc(CC(NC(=O)Nc2cc(C)on2)c2nc3ccccc3[nH]2)cc1 (stereo not shown) [Example 401, 1-(1-(1H-Benzo[d]imidazol-2-yl)-2-(4-methoxyphenyl)ethyl)-3-(5-methylisoxazol-3-yl)urea] | 0.372 µM
7 | COc1ccc(CC(NC(=O)Nc2ncc(C)s2)c2nc3ccccc3[nH]2)cc1 (stereo not shown) [Example 402, 1-(1-(1H-Benzo[d]imidazol-2-yl)-2-(4-methoxyphenyl)ethyl)-3-(5-methylthiazol-2-yl)urea] | 0.784 µM
8 | COc1ccc(CC(NC(=O)Nc2cc(-c3ccc(Cl)cc3)nn2C)c2nc3ccccc3[nH]2)cc1 (stereo not shown) [Example 403, 1-(1-(1H-Benzo[d]imidazol-2-yl)-2-(4-methoxyphenyl)ethyl)-3-(3-(4-chlorophenyl)-1-methyl-1H-pyrazol-5-yl)urea] | 0.118 µM
9 | COc1ccc(CC(NC(=O)Nc2cc(-c3ccc(OC)cc3)n[nH]2)c2nc3ccccc3[nH]2)cc1 (stereo not shown) [Example 404, 1-(1-(1H-benzo[d]imidazol-2-yl)-2-(4-methoxyphenyl)ethyl)-3-(3-(4-methoxyphenyl)-1H-pyrazol-5-yl)urea] | 0.158 µM
10 | COc1ccc(CC(NC(=O)Nc2cc(C3CC3)nn2-c2ccccc2)c2nc3ccccc3[nH]2)cc1 (stereo not shown) [Example 405, 1-(1-(1H-benzo[d]imidazol-2-yl)-2-(4-methoxyphenyl)ethyl)-3-(3-cyclopropyl-1-phenyl-1H-pyrazol-5-yl)urea] | 0.032 µM
11 | COc1ccc(CC(NC(=O)Nc2ccnn2-c2ccc(OC)cc2)c2nc3ccccc3[nH]2)cc1 (stereo not shown) [Example 406, 1-(1-(1H-benzo[d]imidazol-2-yl)-2-(4-methoxyphenyl)ethyl)-3-(1-(4-methoxyphenyl)-1H-pyrazol-5-yl)urea] | 0.182 µM
12 | COc1ccc(CC(NC(=O)Nc2ccnn2-c2ccc(C(C)C)cc2)c2nc3ccccc3[nH]2)cc1 (stereo not shown) [Example 407, 1-(1-(1H-benzo[d]imidazol-2-yl)-2-(4-methoxyphenyl)ethyl)-3-(1-(4-isopropylphenyl)-1H-pyrazol-5-yl)urea] | 0.156 µM
13 | COc1ccc(CC(NC(=O)Nc2cc(C)nn2-c2ccccc2)c2nc3ccccc3[nH]2)cc1 (stereo not shown) [Example 408, 1-(1-(1H-benzo[d]imidazol-2-yl)-2-(4-methoxyphenyl)ethyl)-3-(3-methyl-1-phenyl-1H-pyrazol-5-yl)urea] | 0.02 µM
14 | COc1ccc(CC(NC(=O)Nc2ccnn2-c2ccncc2)c2nc3ccccc3[nH]2)cc1 (stereo not shown) [Example 409, 1-(1-(1H-benzo[d]imidazol-2-yl)-2-(4-methoxyphenyl)ethyl)-3-(1-(pyridin-4-yl)-1H-pyrazol-5-yl)urea] | 0.362 µM
15 | COc1ccc(CC(NC(=O)Nc2ccnn2-c2ccc(F)cc2)c2nc3ccccc3[nH]2)cc1 (stereo not shown) [Example 410, 1-(1-(1H-benzo[d]imidazol-2-yl)-2-(4-methoxyphenyl)ethyl)-3-(1-(4-fluorophenyl)-1H-pyrazol-5-yl)urea] | 0.045 µM
16 | COc1ccc(CC(NC(=O)Nc2ccnn2-c2ccccn2)c2nc3ccccc3[nH]2)cc1 (stereo not shown) [Example 411, 1-(1-(1H-benzo[d]imidazol-2-yl)-2-(4-methoxyphenyl)ethyl)-3-(1-(pyridin-2-yl)-1H-pyrazol-5-yl)urea] | 0.056 µM
17 | COc1ccc(CC(NC(=O)Nc2ccnn2-c2ccccc2)c2nc3ccccc3[nH]2)cc1 (stereo not shown) [Example 412, 1-(1-(1H-benzo[d]imidazol-2-yl)-2-(4-methoxyphenyl)ethyl)-3-(1-phenyl-1H-pyrazol-5-yl)urea] | 0.157 µM
18 | COc1ccc(CC(NC(=O)Nc2ccnn2-c2ccc(OC(F)(F)F)cc2)c2nc3ccccc3[nH]2)cc1 (stereo not shown) [Example 413, 1-(1-(1H-benzo[d]imidazol-2-yl)-2-(4-methoxyphenyl)ethyl)-3-(1-(4-(trifluoromethoxy)phenyl)-1H-pyrazol-5-yl)urea] | 0.153 µM
19 | COc1ccc(CC(NC(=O)Nc2ccnn2C(C)(C)C)c2nc3ccccc3[nH]2)cc1 (stereo not shown) [Example 414, 1-(1-(1H-benzo[d]imidazol-2-yl)-2-(4-methoxyphenyl)ethyl)-3-(1-(tert-butyl)-1H-pyrazol-5-yl)urea] | 0.03 µM
20 | COc1ccc(CC(NC(=O)Nc2ccnn2Cc2ccccc2)c2nc3ccccc3[nH]2)cc1 (stereo not shown) [Example 415, 1-(1-(1H-benzo[d]imidazol-2-yl)-2-(4-methoxyphenyl)ethyl)-3-(1-benzyl-1H-pyrazol-5-yl)urea] | 0.101 µM
21 | COc1ccc(CC(NC(=O)Nc2cc(C)nn2C)c2nc3ccccc3[nH]2)cc1 (stereo not shown) [Example 416, 1-(1-(1H-benzo[d]imidazol-2-yl)-2-(4-methoxyphenyl)ethyl)-3-(1,3-dimethyl-1H-pyrazol-5-yl)urea] | 0.089 µM
22 | CCn1nccc1NC(=O)NC(Cc1ccc(OC)cc1)c1nc2ccccc2[nH]1 (stereo not shown) [Example 417, 1-(1-(1H-benzo[d]imidazol-2-yl)-2-(4-methoxyphenyl)ethyl)-3-(1-ethyl-1H-pyrazol-5-yl)urea] | 0.061 µM
23 | COc1ccc(CC(NC(=O)Nc2ccnn2C)c2nc3ccccc3[nH]2)cc1 (stereo not shown) [Example 418, 1-(1-(1H-benzo[d]imidazol-2-yl)-2-(4-methoxyphenyl)ethyl)-3-(1-methyl-1H-pyrazol-5-yl)urea] | 0.21 µM
24 | COc1ccc(CC(NC(=O)Nc2ccnn2-c2cccc(OC)c2)c2nc3ccccc3[nH]2)cc1 (stereo not shown) [Example 419, 1-(1-(1H-benzo[d]imidazol-2-yl)-2-(4-methoxyphenyl)ethyl)-3-(1-(3-methoxyphenyl)-1H-pyrazol-5-yl)urea] | 0.056 µM
25 | COc1ccc(CC(NC(=O)Nc2ccnn2-c2ccc(C)cc2)c2nc3ccccc3[nH]2)cc1 (stereo not shown) [Example 420, 1-(1-(1H-benzo[d]imidazol-2-yl)-2-(4-methoxyphenyl)ethyl)-3-(1-(p-tolyl)-1H-pyrazol-5-yl)urea] | 0.207 µM
26 | COc1ccc(CC(NC(=O)Nc2ccnn2-c2ccccc2OC)c2nc3ccccc3[nH]2)cc1 (stereo not shown) [Example 421, 1-(1-(1H-benzo[d]imidazol-2-yl)-2-(4-methoxyphenyl)ethyl)-3-(1-(2-methoxyphenyl)-1H-pyrazol-5-yl)urea] | 0.046 µM
27 | COc1ccc(CC(C)(NC(=O)Nc2cc(C3CC3)nn2C)c2nc3ccccc3[nH]2)cc1 (stereo not shown) [Example 422, 1-(2-(1H-benzo[d]imidazol-2-yl)-1-(4-methoxyphenyl)propan-2-yl)-3-(3-cyclopropyl-1-methyl-1H-pyrazol-5-yl)urea] | 0.72 µM
28 | COc1ccc(C[C@@H](NC(=O)NCc2nc(C(C)(F)F)co2)c2nc3ccccc3[nH]2)cc1 [Example 423, (R)-1-(1-(1H-benzo[d]imidazol-2-yl)-2-(4-methoxyphenyl)ethyl)-3-((4-(1,1-difluoroethyl)oxazol-2-yl)methyl)urea] | 0.565 µM
29 | (R)-tert-Butyl 4-((3-(1-(1H-benzo[d]imidazol-2-yl)-2-(4-methoxyphenyl)ethyl)ureido)methyl)piperidine-1-carboxylate [Example 106] | 0.538 µM
30 | (R)—N-(1-(1H-Benzo[d]imidazol-2-yl)-2-(4-methoxyphenyl)ethyl)-4-acetylpiperazine-1-carboxamide [Example 135] | 0.333 µM

Test system: collagen-induced arthritis
Assay: not given
Conditions: in vivo; cited from earlier work

Row | Compound | severity of collagen-induced arthritis
31 | COC(=O)CCC[C@H](O)[C@H](O)CO [BML-111] | reduced the severity of collagen-induced arthritis
